# Test: Dissolution test, paddle method in Japanese Pharmacopoeia (Test Example 1)
# Type: physicochemical
# Conditions: about 10 mg in 900 ml test fluid, 50 rpm; dissolution test first fluid (pH 1.2) and second fluid (pH 6.8); sampling at 10, 30, 60 and 120 minutes; UV measurement; compared with A-form crystal
# Protocol: About 10 mg of each of A-form crystal (Form A) obtained in Example 1, B-form crystal (Form B) obtained in Example 2 and H-form crystal (Form H) obtained in Example 3 was sampled, and a test was carried out at 50 rpm by the dissolution test method paddle method in Japanese Pharmacopoeia using 900 ml of a test fluid. Upon expiration of 10 minutes, 30 minutes, 60 minutes and 120 minutes after initiation of the test, sampling was carried out, and UV measurements were carried out, whereupon the dissolution ratios were calculated. Here, as the dissolution tester, NTR-VS6P manufactured by TOYAMA SANGYO CO., LTD. was used; as the spectrophotometer, UV-2400PC manufactured by Shimadzu Corporation was used; and as the test fluid, the dissolution test first fluid (pH 1.2) and second fluid (pH 6.8) were used. The results are shown in FIGS. 3 and 4 (the ordinate represents the dissolution ratio (%), and the abscissa represents the dissolution time (minutes)).
compound,measurement,value
"Cl.O=c1[nH]nc(OCCCc2ccc(Cl)cc2)c(NCc2cccnc2)c1Br [B-form crystal, 4-bromo-6-(3-(4-chlorophenyl)propoxy)-5-(pyridin-3-ylmethylamino)pyridazin-3(2H)-one mono-hydrochloride]",solubility (dissolution ratio),superior to A-form crystal in solubility

# From patent US8481727B2, “Crystals of hydrochloride of pyridazin-3(2H)-one compound and process for production of same” (Nissan Chemical Industries, Ltd., priority 2008, dated 2013)
